Measurements: US20100029654A1, “CARDIOVASCULAR COMPOSITIONS AND USE OF THE SAME FOR THE TREATMENT OF ALZHEIMER'S DISEASE” (MOUNT SINAI SCHOOL OF MEDICINE, priority 2006, published 2010)
Where a name gives a salt, the structure may show the parent alone. Read-outs that look alike come from different tables or passages of the source.

Experiments:
[1] = tested on: Aβ1-40; experiment: Aβ1-40 content in conditioned medium of primary cortico-hippocampal neuron cultures from Tg2576 mice (ELISA; primary and secondary dose-response screening); format: cell-based, mouse; conditions: for Ab1-40 (% of ctl) / activity at 100 µM: drug 100 μM; for reduced Aβ1-40: <85% of ctl; for activity at 100 µM: Mus musculus, Neuron, 24 h, read-out: Ab1-40 (% of ctl)
Description: (§1) Potential Aβ-lowering activity was assessed for 150 commercially available cardiovascular drugs using primary cortico-hippocampal neuron cultures derived from embryonic Tg2576 (El 6). […] All cardiovascular reagents were obtained from MicroSource Discovery Systems Inc (Gaylordsville, Conn.). […] Individual cardiovascular agents were applied directly to the culture medium (final 1% DMSO in the culture media). In control studies, parallel Tg2576 primary neuron cultures were treated with vehicle (1% DMSO) alone. The influence of drug treatments in Aβ content in the conditioned medium in treated cultures was assessed by assessing steady state levels of Aβ1-40 and Aβ1-42 in the culture media 24 hours after treatment.
(§2) Embryonic brain tissue was mechanically triturated and centrifuged. Neurons were seeded onto poly-D-lysine-coated 96-well plates at 1.0×10^5 cells per well and cultured in the serum-free chemically-defined medium Neurobasal, supplemented with 2% B27, 0.5 mM L-glutamine and 1% penicillin-streptomycin (Gibco-BRL).
(§3) For primary screening, cultured neurons were treated with 100 μM of drug in duplicates for 16 hours; all drugs were obtained in stock from MicroSource Discovery Systems Inc (Gaylordsville, Conn.). Conditioned medium was collected for Aβ detection using commercially available ELISA kits (BioSource). […] Primary neurons prepared in 96-well plates were treated with 0.1 μM, 1 μM, 10 μM, 50 μM, and 100 μM of each drug in duplicate for ˜16 hours and conditioned medium was collected for Aβ detection.

[2] = tested on: Aβ1-42; experiment: Aβ1-42 content in conditioned medium of primary cortico-hippocampal neuron cultures from Tg2576 mice (ELISA; primary and secondary dose-response screening); format: cell-based, mouse; conditions: for Ab1-42 (% of ctl) / activity at 100 µM: drug 100 μM; for reducing Aβ1-42: <85% of ctl; for activity at 100 µM: Mus musculus, Neuron, 24 h, read-out: Ab1-42 (% of ctl)
Description: as §1, §2, §3

[3] = tested on: primary cortico-hippocampal neuron cultures; experiment: MTT in primary screening
[4] = tested on: primary cortico-hippocampal neuron cultures; experiment: lactate dehydrogenase (LDH) activity assay in parallel neuron cultures
Description: For in vitro treatments drugs available from “The Spectrum Collection” in stocks of 10 mM in DMSO were applied directly to cultures to the desired concentrations (final 1% DMSO); control primary neuron cultures from Tg2576 embryos were treated with vehicle resulting in a final 1% DMSO.
Cell viability was assessed using a commercial available LDH assay kit according to the manufacture's instruction (Promega).

[5] = Primary Screening, table sorted by Aβ1-40
[6] = primary screening, Tg2576 neuron cultures, table sorted by Aβ1-42
[7] = primary screening, table sorted by Aβ1-42

Structure (SMILES)	Ab1-40 (% of ctl) [1, 5]	reduced Aβ1-40 ([1]; primary screening)	Ab1-40 (% of ctl) [1, 6]	EC50 ([1]; secondary dose-response screening 0.01-100 μM, 24 hours, read-out: EC50 (molar) Aβ1-40)	Ab1-42 (% of ctl) [2, 5]	reducing Aβ1-42 ([2]; primary screening)	Ab1-42 (% of ctl) [2, 6]	MTT (% of ctl) [3, 5]	MTT (% of ctl) [3, 7]	LDH (% of ctl) [4, 5]	LDH at E-5M % of change ([4]; drug at E-5M)	LDH (% of ctl) [4, 7]	activity at 100 µM [1, 5]	activity at 100 µM [1, 6]	activity at 100 µM [2, 5]	activity at 100 µM [2, 6]
NS(=O)(=O)c1cc2c(cc1C(F)(F)F)NC(Cc1ccccc1)NS2(=O)=O (stereo not drawn) [Bendrofumethiazide]	76.2 % of ctl	reduced Aβ1-40	76.2 % of ctl	36.1 µM	58.4 % of ctl	useful in reducing Aβ1-42	58.4 % of ctl	88.9 % of ctl	88.9 % of ctl	104.7 % of ctl	5.0%	104.7 % of ctl				
NS(=O)(=O)c1cc2c(cc1Cl)N=C(CSCc1ccccc1)NS2(=O)=O [Benzthiazide]								98.5 % of ctl	98.5 % of ctl	105.1 % of ctl		105.1 % of ctl	106%	106%	98.9%	98.9%
CC(C)COCC(CN(Cc1ccccc1)c1ccccc1)N1CCCC1 (stereo not drawn) [Bepridil Hydrochloride]		reduced Aβ1-40				useful in reducing Aβ1-42		77.1 % of ctl	77.1 % of ctl	1885.2 % of ctl		1885.2 % of ctl	5.1%	5.1%	19.9%	19.9%
CNCCc1ccccn1 [Betahistine Hydrochloride]								107.1 % of ctl	107.1 % of ctl	107.3 % of ctl		107.3 % of ctl	110%	110%	98.9%	98.9%
CCCC(=O)Nc1ncnc2c1ncn2[C@@H]1O[C@@H]2COP(=O)(O)O[C@H]2[C@H]1OC(=O)CCC [Bucladesine]						useful in reducing Aβ1-42		97.2 % of ctl	97.2 % of ctl	357.1 % of ctl		357.1 % of ctl	85.3%	85.3%	69.9%	69.9%
CCCCNc1cc(C(=O)O)cc(S(N)(=O)=O)c1Oc1ccccc1 [Bumetanide]		reduced Aβ1-40				useful in reducing Aβ1-42		95.3 % of ctl	95.3 % of ctl	118.1 % of ctl		118.1 % of ctl	2.3%	2.3%	74.7%	74.7%
